Consider ten compounds from patent US7238716B2, “Alkanoic acid derivatives process for their production and use thereof” (Takeda Pharmaceuticals Company Limited, priority 2000, dated 2007).

Where two headings read alike, the source gives them in different places.

One assay relates to KKAY mice. Put plainly: Hypoglycemic and hypolipidemic actions in mice (Test Example 1). Type of assay: in vivo. As to conditions: Mus musculus, po, 96 h, 0.005% in powdery diet, four days. In outline:
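Compounds given in powdered diet at 0.01% or 0.005% ad libitum for four days to KKAY mice (11–12 weeks old, 5 per group). Plasma glucose and triglyceride measured enzymatically from orbital blood; values are percent reduction relative to untreated group taken as 100%.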

For the next assay, the system named is KKA^y mice. Put plainly: Total cholesterol lowering action and plasma anti-arteriosclerosis index enhancing action in mice (Test Example 2). Type of assay: in vivo. As to conditions: Mus musculus, po, 96 h, 0.005% in powdery diet, four days; for change in vivo at 0.005 %: percent increase of [(HDL cholesterol/total cholesterol)×100] vs non-administration group; for inhibition in vivo at 0.005 %: percent reduction of plasma total cholesterol level vs non-administration group. The text has this: Test compounds were mixed in a powdery diet (CE-2, Japan Clea) the concentration of 0.01% (compounds of Examples 7, 26, 29 and 32) or 0.005% (compounds of Examples 1, 11, 15, 18, 24, 36, 37, 41, 48, 50, 51, 52, 58, 62, 79, 88, 91, 92, 93, 97, 107, 110, 129 and 130), and freely given to KKA^y mice (11 to 12 weeks old, 5 mice per group), a model of type-2 diabetes mellitus, for four days. During this period, water was given freely. Blood was sampled from orbital venous plexus and components were analyzed using the plasma separated from the blood. Total cholesterol levels were determined by using L type Wako Cholesterol (Wako Pure Chemical Industries, Ltd). Precipitation reagent for HDL cholesterol (Wako Pure Chemical Industries, Ltd.) was added to a part of the plasma to precipitate non-HDL lipoprotein, and cholesterol (HDL cholesterol) in the resulting supernatant was determined. The plasma anti-arteriosclerosis index [(HDL cholesterol/total cholesterol)×100] was calculated by using these cholesterol levels.
In the Table, “Total cholesterol lowering action (%)” represents the percent reduction (%) of total cholesterol level in the test compound administration group, when the total cholesterol level in the test compound non-administration group is taken as 100%. “Plasma anti-arteriosclerosis index-enhancing action (%)” represents the percent increase (%) of plasma anti-arteriosclerosis index in the test compound administration group, when the plasma anti-arteriosclerosis index in the test compound non-administration group is taken as 100%.

The mark [1] stands for this setting: percent reduction of plasma glucose level vs non-administration group, read-out: hypoglycemic action (%).
Where [2] appears, read: percent reduction of plasma triglyceride level vs non-administration group, read-out: hypolipidemic action (%).

In the case of `Cc1oc(-c2ccccc2)nc1COc1cc(COc2ccccc2CC(=O)O)on1` [Example 79, 2-[2-[3-(5-methyl-2-phenyl-4-oxazolylmethoxy)-5-isoxazoly]methoxylphenyl]acetic acid], the inhibition in vivo at 0.005 % in the assay on KKAY mice (setting [1]) was 54%; in the assay on KKAY mice (setting [2]) it was 96%; in the assay with KKA^y mice it was 39%. For the same compound, in the assay on KKA^y mice, the change in vivo at 0.005 % was 42%.

On to `Cc1oc(-c2ccccc2)nc1COc1ccc(COc2ncccc2CC(=O)O)cn1` [Example 88, 2-[2-[[6-[(5-methyl-2-phenyl-4-oxazolyl)methoxy]-3-pyridyl]methoxy]-3-pyridyl]acetic acid], for which the inhibition in vivo at 0.005 % in the assay with KKAY mice (setting [1]) was found to be 47%; in the assay with KKAY mice (setting [2]), 90%; with KKA^y mice it was 10%. Also, the change in vivo at 0.005 % in the assay with KKA^y mice was determined as 22%.

As for `COc1cc(COc2ncccc2CC(=O)O)ccc1OCc1nc(-c2ccccc2)oc1C` [Example 91, 2-[2-[3-methoxy-4-[(2-phenyl-5-methyl-4-oxazolyl)methoxy]benzyloxy]-3-pyridyl]acetic acid], the values for the inhibition in vivo at 0.005 % with KKAY mice (setting [1]), in the assay on KKAY mice (setting [2]) and in the assay with KKA^y mice were 50%, 67% and 6%, respectively. Besides, the change in vivo at 0.005 % in the assay on KKA^y mice was 16%.

For the compound `Cc1oc(-c2ccco2)nc1COc1ccc(COc2ncccc2CC(=O)O)cc1` [Example 92, 2-[2-[4-[[2-(2-furyl)-5-methyl-4-oxazolyl]methoxy]benzyloxy]-3-pyridyl]acetic acid], the inhibition in vivo at 0.005 % was 58% in the assay with KKAY mice (setting [1]), 83% in the assay on KKAY mice (setting [2]) and 15% in the assay with KKA^y mice. Moreover, the change in vivo at 0.005 % in the assay on KKA^y mice came to 23%.

Consider `Cc1sc(-c2ccccc2)nc1COc1ccc(COc2ncccc2CC(=O)O)cc1` [Example 93, 2-[2-[4-[(5-methyl-2-phenyl-4-thiazolyl)methoxy]benzyloxy]-3-pyridyl]acetic acid], for which the values for the inhibition in vivo at 0.005 % in the assay on KKAY mice (setting [1]), in the assay with KKAY mice (setting [2]) and with KKA^y mice were 45%, 53% and 16%, respectively. The change in vivo at 0.005 % with KKA^y mice is 17%.

In the case of `Cc1oc(-c2ccccc2)nc1CCc1ccc(COc2ccccc2CC(=O)O)cc1` [Example 97, 2-[2-[4-[2-(5-methyl-2-phenyl-4-oxazolyl)ethyl]benzyloxy]phenyl]acetic acid], the inhibition in vivo at 0.005 % was found to be 34% in the assay on KKAY mice (setting [1]), 83% with KKAY mice (setting [2]) and 27% with KKA^y mice. Besides, the change in vivo at 0.005 % with KKA^y mice was found to be 27%.

Consider `Cc1oc(-c2ccccc2)nc1CCc1noc(COc2ccccc2CC(=O)O)n1` [Example 107, 2-[2-[[3-[2-(5-methyl-2-phenyl-4-oxazolyl)ethyl]-1,2,4-oxadiazol-5-yl]methoxy]phenyl]acetic acid], for which the inhibition in vivo at 0.005 % with KKAY mice (setting [1]) worked out at 40%; in the assay with KKAY mice (setting [2]), 39%; in the assay on KKA^y mice it was 13%. Moreover, the change in vivo at 0.005 % in the assay with KKA^y mice was determined as 9%.

Turning to `Cc1ccc(CC(=O)O)c(OCc2ccc(OCc3nc(-c4ccccc4)oc3C)cc2)n1` [Example 110, 2-[6-methyl-2-[4-[(5-methyl-2-phenyl-4-oxazolyl)methoxy]benzyloxy]-3-pyridyl]acetic acid], the inhibition in vivo at 0.005 % was determined as 51% in the assay with KKAY mice (setting [1]), 74% in the assay on KKAY mice (setting [2]) and 21% with KKA^y mice. Further, in the assay with KKA^y mice, the change in vivo at 0.005 % was 24%.

Regarding `Cc1oc(-c2ccccc2)nc1COc1cc(COc2ncccc2CC(=O)O)on1` [Example 129, 2-[2-[[3-[(5-methyl-2-phenyl-4-oxazolyl)methoxy]-5-isoxazolyl]methoxy]-3-pyridyl]acetic acid], the values for the inhibition in vivo at 0.005 % in the assay on KKAY mice (setting [1]), in the assay on KKAY mice (setting [2]) and in the assay with KKA^y mice were 45%, 93% and 14%, respectively. In the assay on KKA^y mice, the change in vivo at 0.005 % was determined as 25%.

For `Cc1oc(-c2ccc3ccccc3c2)nc1COc1ccc(COc2ncccc2CC(=O)O)cc1` [Example 130, 2-[2-[4-[5-methyl-2-(2-naphthyl)-4-oxazolylmethoxy]benzyloxy]-3-pyridyl]acetic acid], the inhibition in vivo at 0.005 % turned out to be 55% in the assay on KKAY mice (setting [1]), 63% in the assay with KKAY mice (setting [2]) and 16% in the assay with KKA^y mice. Further, the change in vivo at 0.005 % in the assay with KKA^y mice was 15%.
